This assay concerns mutant Huntington (HTT) protein. Nature of the assay: HTT Mutant HTRF iPSC assay (mHTT protein lowering). The class given is cell-based. The following applies: human iPSC derived from a HTT patient with a poly-Q49 mutation.

Bounds are passed on as bounds.

For orientation: IC50 means the point on the concentration scale where inhibition reaches its midpoint. A high value points to weaker potency in that assay. For the compound `Cc1cn2cc(NC(=O)c3cc4ccc(N5CCC5CN(C)C)nc4s3)ccc2n1` (stereo not shown) [Compound 48, 6-(2-((dimethylamino)methyl)azetidin-1-yl)-N-(2-methylimidazo[1,2-a]pyridin-6-yl)thieno[2,3-b]pyridine-2-carboxamide], the IC50 was 1000 to 9000 nM.
As for `CN(C)C1CCN(c2ccc3cc(C(=O)Nc4ccc5[nH]c(=O)n(C)c5c4)sc3n2)C1` (stereo not shown) [Compound 49, 6-(3-(dimethylamino)pyrrolidin-1-yl)-N-(3-methyl-2-oxo-2,3-dihydro-1H-benzo[d]imidazol-5-yl)thieno[2,3-b]pyridine-2-carboxamide], the figure is 1000 to 9000 nM.
As for `Cc1cn2cc(NC(=O)c3cc4ccc(N5CC[C@H](N(C)C)C5)nc4s3)nc(C)c2n1` [Compound 50, (S)-6-(3-(dimethylamino)pyrrolidin-1-yl)-N-(2,8-dimethylimidazo[1,2-a]pyrazin-6-yl)thieno[2,3-b]pyridine-2-carboxamide], the figure is 100 to 1000 nM; as for `Cc1cn2cc(NC(=O)c3cc4ccc(N5CC[C@@H](N(C)C)C5)nc4s3)nc(C)c2n1` [Compound 51, (R)-6-(3-(dimethylamino)pyrrolidin-1-yl)-N-(2,8-dimethylimidazo[1,2-a]pyrazin-6-yl)thieno[2,3-b]pyridine-2-carboxamide], < 100 nM; as for `Cc1cn2nc(NC(=O)c3cc4ccc(N5CC[C@H](N(C)C)C5)nc4s3)ccc2n1` [Compound 52, (S)-6-(3-(dimethylamino)pyrrolidin-1-yl)-N-(2-methylimidazo[1,2-b]pyridazin-6-yl)thieno[2,3-b]pyridine-2-carboxamide], 100 to 1000 nM.
With `Cc1cn2nc(NC(=O)c3cc4ccc(N5CC[C@@H](N(C)C)C5)nc4s3)ccc2n1` [Compound 53, (R)-6-(3-(dimethylamino)pyrrolidin-1-yl)-N-(2-methylimidazo[1,2-b]pyridazin-6-yl)thieno[2,3-b]pyridine-2-carboxamide], the IC50 lay within 1000 to 9000 nM.
With `Cc1cn2cc(NC(=O)c3cc4ccc(N5CC[C@H](N(C)C)C5)nc4s3)cc(F)c2n1` [Compound 54, 6-[(3S)-3-(dimethylamino)pyrrolidin-1-yl]-N-(8-fluoro-2-methyl-imidazo[1,2-a]pyridin-6-yl)thieno[2,3-b]pyridine-2-carboxamide], the IC50 is < 100 nM.
Take `Cc1cn2cc(NC(=O)c3cc4ccc(N5CC[C@@H](N(C)C)C5)nc4s3)cc(F)c2n1` [Compound 55, 6-[(3R)-3-(dimethylamino)pyrrolidin-1-yl]-N-(8-fluoro-2-methyl-imidazo[1,2-a]pyridin-6-yl)thieno[2,3-b]pyridine-2-carboxamide]: the IC50 was < 100 nM.
Take `Cc1cn2nc(NC(=O)c3cc4ccc(N5CC[C@@H](N(C)C)C5)nc4s3)cc(C)c2n1` [Compound 56, (R)-6-(3-(dimethylamino)pyrrolidin-1-yl)-N-(2,8-dimethylimidazo[1,2-b]pyridazin-6-yl)thieno[2,3-b]pyridine-2-carboxamide]: the IC50 was 1000 to 9000 nM.
`Cc1cn2cc(NC(=O)c3cc4ccc(N5CCCC5)nc4s3)nc(C)c2n1` [Compound 57, N-(2,8-dimethylimidazo[1,2-a]pyrazin-6-yl)-6-(pyrrolidin-1-yl)thieno[2,3-b]pyridine-2-carboxamide] had an IC50 of 1000 to 9000 nM.
As for `CN(C)C1CCN(c2ccc3cc(C(=O)Nc4ccc5c(c4)n(C)c(=O)n5C)sc3n2)C1` (stereo not shown) [Compound 58, N-(1,3-dimethyl-2-oxo-2,3-dihydro-1H-benzo[d]imidazol-5-yl)-6-(3-(dimethylamino)pyrrolidin-1-yl)thieno[2,3-b]pyridine-2-carboxamide], the figure is 1000 to 9000 nM; as for `CN(C)C1CCN(c2ccc3cc(C(=O)Nc4ccc5sc(=O)n(C)c5c4)sc3n2)C1` (stereo not shown) [Compound 59, 6-(3-(dimethylamino)pyrrolidin-1-yl)-N-(3-methyl-2-oxo-2,3-dihydrobenzo[d]thiazol-5-yl)thieno[2,3-b]pyridine-2-carboxamide], 1000 to 9000 nM.
In turn, `CN(C)C1CCN(c2ccc3cc(C(=O)Nc4cnn5c(C(F)(F)F)ccnc45)sc3n2)C1` (stereo not shown) [Compound 60, 6-(3-(dimethylamino)pyrrolidin-1-yl)-N-(7-(trifluoromethyl)pyrazolo[1,5-a]pyrimidin-3-yl)thieno[2,3-b]pyridine-2-carboxamide] came in with an IC50 of 1000 to 9000 nM.
Compound `CC(C)n1ncc2ccc(NC(=O)c3cc4ccc(N5CCC(N(C)C)C5)nc4s3)cc21` (stereo not shown) [Compound 61, 6-(3-(dimethylamino)pyrrolidin-1-yl)-N-(1-isopropyl-1H-indazol-6-yl)thieno[2,3-b]pyridine-2-carboxamide] returned an IC50 of 1000 to 9000 nM.
In the case of `CN(C)C1CCN(c2ccc3cc(C(=O)Nc4ccc5cncn5c4)sc3n2)C1` (stereo not shown) [Compound 62, 6-(3-(dimethylamino)pyrrolidin-1-yl)-N-(imidazo[1,5-a]pyridin-6-yl)thieno[2,3-b]pyridine-2-carboxamide] it was 1000 to 9000 nM.
`CN(C)C1CCN(c2ccc3cc(C(=O)Nc4ccc5nsnc5c4)sc3n2)C1` (stereo not shown) [Compound 63, N-(benzo[c][1,2,5]thiadiazol-5-yl)-6-(3-(dimethylamino)pyrrolidin-1-yl)thieno[2,3-b]pyridine-2-carboxamide] registered an IC50 of 1000 to 9000 nM.
As for `CN(C)C1CCN(c2ccc3cc(C(=O)Nc4nc5cnccn5n4)sc3n2)C1` (stereo not shown) [Compound 64, N-([1,2,4]triazolo[1,5-a]pyrazin-2-yl)-6-(3-(dimethylamino)pyrrolidin-1-yl)thieno[2,3-b]pyridine-2-carboxamide], the figure is 1000 to 9000 nM; as for `CN(C)C1CCN(c2ccc3cc(C(=O)Nc4cc(F)c5nn(C)cc5c4)sc3n2)C1` (stereo not shown) [Compound 65, 6-(3-(dimethylamino)pyrrolidin-1-yl)-N-(7-fluoro-2-methyl-2H-indazol-5-yl)thieno[2,3-b]pyridine-2-carboxamide], < 100 nM; as for `Cc1cn2cc(NC(=O)c3cc4ccc(N5C[C@@H]6CCN(C)[C@@H]6C5)nc4s3)cc(F)c2n1` [Compound 66, 6-[(3aS,6aS)-1-methyl-2,3,3a,4,6,6a-hexahydropyrrolo[3,4-b]pyrrol-5-yl]-N-(8-fluoro-2-methyl-imidazo[1,2-a]pyridin-6-yl)thieno[2,3-b]pyridine-2-carboxamide], < 100 nM.
Consider `Cc1cn2cc(NC(=O)c3cc4ccc(N5C[C@@H](C)N(C)[C@@H](C)C5)nc4s3)cc(F)c2n1` [Compound 69, N-(8-fluoro-2-methylimidazo[1,2-a]pyridin-6-yl)-6-((3R,5S)-3,4,5-trimethylpiperazin-1-yl)thieno[2,3-b]pyridine-2-carboxamide], for which the IC50 is < 100 nM.
As for `Cc1cn2cc(NC(=O)c3cc4ccc(N5C[C@H]6CCN(C)[C@H]6C5)nc4s3)cc(F)c2n1` [Compound 70, N-(8-fluoro-2-methylimidazo[1,2-a]pyridin-6-yl)-6-((3aR,6aR)-1-methylhexahydropyrrolo[3,4-b]pyrrol-5(1H)-yl)thieno[2,3-b]pyridine-2-carboxamide], the 50% inhibitory concentration (IC50) is < 100 nM.
In the case of `Cc1nc2c(F)cc(NC(=O)c3cc4ccc(N5CCC(N(C)C)C5)nc4s3)cc2o1` (stereo not shown) [Compound 71, 6-(3-(dimethylamino)pyrrolidin-1-yl)-N-(4-fluoro-2-methylbenzo[d]oxazol-6-yl)thieno[2,3-b]pyridine-2-carboxamide] it was < 100 nM.
In the case of `COc1cc(NC(=O)c2cc3ccc(N4CCC(N(C)C)C4)nc3s2)cn2cc(C)nc12` (stereo not shown) [Compound 72, 6-(3-(dimethylamino)pyrrolidin-1-yl)-N-(8-methoxy-2-methylimidazo[1,2-a]pyridin-6-yl)thieno[2,3-b]pyridine-2-carboxamide] it was 100 to 1000 nM; in that of `Cc1cn2cc(NC(=O)c3cc4ccc(N5CCC(N(C)C)C5)nc4s3)cc(C)c2n1` (stereo not shown) [Compound 73, 6-(3-(dimethylamino)pyrrolidin-1-yl)-N-(2,8-dimethylimidazo[1,2-a]pyridin-6-yl)thieno[2,3-b]pyridine-2-carboxamide], 1000 to 9000 nM; in that of `COc1cc2nn(C)cc2cc1NC(=O)c1cc2ccc(N3CCC(N(C)C)C3)nc2s1` (stereo not shown) [Compound 74, 6-(3-(dimethylamino)pyrrolidin-1-yl)-N-(6-methoxy-2-methyl-2H-indazol-5-yl)thieno[2,3-b]pyridine-2-carboxamide], 100 to 1000 nM.
For the compound `Cc1cn2cc(NC(=O)c3cc4ccc(N5CCNCC5)nc4s3)cc(F)c2n1` [Compound 75, N-(8-fluoro-2-methylimidazo[1,2-a]pyridin-6-yl)-6-(piperazin-1-yl)thieno[2,3-b]pyridine-2-carboxamide], the concentration for half-maximal inhibition (IC50) is < 100 nM.
`Cc1cn2cc(NC(=O)c3cc4ccc(N5CC6(CCCN(C)C6)C5)nc4s3)cc(F)c2n1` [Compound 76, N-(8-fluoro-2-methylimidazo[1,2-a]pyridin-6-yl)-6-(6-methyl-2,6-diazaspiro[3.5]nonan-2-yl)thieno[2,3-b]pyridine-2-carboxamide] registered an IC50 of 100 to 1000 nM.
In the case of `Cc1cn2cc(NC(=O)c3cc4ccc(N5CCN(C)CC5)nc4s3)cc(F)c2n1` [Compound 77, N-(8-fluoro-2-methylimidazo[1,2-a]pyridin-6-yl)-6-(4-methylpiperazin-1-yl)thieno[2,3-b]pyridine-2-carboxamide] it was < 100 nM.
As for `Cc1cn2cc(NC(=O)c3cc4ccc(N5CCC(C6(N)CC6)C5)nc4s3)cc(F)c2n1` (stereo not shown) [Compound 78, 6-(3-(1-aminocyclopropyl)pyrrolidin-1-yl)-N-(8-fluoro-2-methylimidazo[1,2-a]pyridin-6-yl)thieno[2,3-b]pyridine-2-carboxamide], the figure is < 100 nM; as for `Cc1cn2cc(NC(=O)c3cc4ccc(N5CCN(C6CC6)CC5)nc4s3)cc(F)c2n1` [Compound 79, 6-(4-cyclopropylpiperazin-1-yl)-N-(8-fluoro-2-methylimidazo[1,2-a]pyridin-6-yl)thieno[2,3-b]pyridine-2-carboxamide], < 100 nM.
As for `Cc1cn2cc(NC(=O)c3cc4ccc(N5C[C@H]6CNC[C@H]6C5)nc4s3)cc(F)c2n1` [Compound 80, N-(8-fluoro-2-methylimidazo[1,2-a]pyridin-6-yl)-6-((3aR,6aS)-hexahydropyrrolo[3,4-c]pyrrol-2(1H)-yl)thieno[2,3-b]pyridine-2-carboxamide], the figure is 100 to 1000 nM.
